Laboratory results reported in paper PMC6938345, “Inhibition of complement activation, myeloperoxidase, NET formation and oxidant activity by PIC1 peptide variants” (PLoS ONE, 2019).
Where a SMILES comes first, the peptide text is derived from it. [ ]: non-standard residue; d: D form. Sar = CNCC(=O)O

Columns and labels:
[1] = Peptide solubility in water
Procedure: (PA) (Table 1) were synthesized by New England Peptide (Gardner, MA) to >90% purity. Sarcosine variants and PEG were dissolved in water and the pH was adjusted with NaOH. PA was dissolved in DMSO and then brought up to the final concentration with water resulting in 30% DMSO and pH adjusted. Antibody sensitized sheep erythrocytes (EA), purified C1q and factor B-depleted human sera were purchased from Complement Technology (Tyler, TX). Purified myeloperoxidase was purchased from Lee BioSolutions (Maryland Heights, MO) and tetramethylbenzidine (TMB) and PicoGreen were purchased from Thermo Fisher (Waltham MA).
(PA), peptide derivatives were synthesized with sarcosine residues substituted at all 15 positions, included a peptide in which the vicinal cysteines at positions 9 and 10 (C9,C10) were replaced with a single sarcosine residue (Table 1).

[2] = tested on: antibody-initiated complement activation (type O sera + type AB red blood cells); assay: ABO incompatibility hemolytic assay (CH50-type, ex vivo); format: cell-based, human; conditions: peptides 1.8 mM; for ABO hemolysis: Avg of n = 4, concentration basis of PIC1 not stated
Procedure: For hemolytic complement assays, human red blood cells (RBCs) from type AB donors were purified, washed and standardized to 1 × 10^9 cells/ml, as previously described. Human sera from type O donors at a 20% final concentration was combined with 1 mM PIC1 or sarcosine variant peptides and the volume was brought up to 0.15 ml with GVBS^++ and 0.5 ml RBCs. For factor B-depleted sera hemolytic assays, a final of 0.005% factor B depleted sera was incubated with 1 mM PIC1 or sarcosine variant peptides with 0.1 ml antibody-sensitized sheep red blood cells (EA) in a final volume of 0.75 ml GVBS^++. The samples were incubated for 1 hour at 37 °C and then 1.0 ml of GVBS^-—was added to the factor B-depleted samples to stop the reaction. The samples were spun at 3,000 rpm for 5 minutes and the supernatant was collected and read at 412 nm. Values are represented as a percent of the positive control, which consists of human O sera and AB red blood cells in GVBS^++ buffer.
In order to evaluate the extent to which the peptide variants inhibit antibody-initiated complement activation, we tested them in two hemolytic assays including an ABO incompatibility ex vivo assay (Fig 1A) and a classical pathway CH50-type assay in factor B-depleted sera (Fig 1B). In the ABO incompatibility hemolytic assay, purified erythrocytes from a ‘type AB+’ donor are incubated with sera from a ‘type O’ subject containing anti-A and anti-B antibodies; peptides were tested at 1.8 mM. […] We then performed a CH50-type hemolytic assay, with antibody-sensitized sheep erythrocytes, isolating the classical pathway by utilizing factor B-depleted sera; peptides were tested at 0.4 mM.
Fig 1 Sarcosine variant inhibition of complement activation in hemolytic assays and C1q binding. A) Inhibition of ABO incompatibility hemolysis in a CH50-type assay. Peptides are at a final concentration of 1.8 mM. […] Data are the means of n = 4 independent experiments + SEM. B) Inhibition of classical complement pathway-mediated hemolysis in factor B-depleted sera in a CH50-type assay. Peptides are at a final concentration of 0.4 mM. Data are the means of n = 4 independent experiments + SEM. C) Binding of increasing concentrations of sarcosine variants to purified C1q in an ELISA-type assay. Data are the means of n = 3 independent experiments ± SEM. D) Half-maximal binding concentrations were calculated for each peptide’s binding curve.

[3] = Total Antioxidant Capacity (TAC) assay; conditions: for TAC assay, antioxidant activity: Avg of n = 3; for antioxidant capacity (in words): TAC assay
Procedure: The TAC (Total Antioxidant Capacity) Assay (Cell Biolabs, Inc, San Diego, CA) was used to measure the antioxidant capacity of the sarcosine variants based on the reduction of copper (II) to copper (I). The kit protocol was performed as recommended.
Antioxidant activity is measured in copper reducing equivalents (CRE). Peptides were tested over a range of concentrations from 0.03–0.25 mM then compared to the standard. Data are the means of n = 3 independent experiments + SEM.

[4] = tested on: purified human neutrophils; assay: NETosis assay, free DNA by PicoGreen; format: cell-based; conditions: for PICO green - NETs, free DNA release: Average of n = 3, peptide 2 mM
Procedure: NETosis assays with immune complexes were performed as previously described. Briefly, normal human serum was stimulated with ovalbumin-antiovalbumin immune complexes in GVBS^++ for 30 minutes at 37 °C. This mixture along with 0.05% H2O2 was then added to purified human neutrophils resuspended in RPMI with or without sarcosine variants (2 mM), allowing NETosis to occur. Quantitation of free DNA released from the neutrophils was performed using PicoGreen. Slides were stained with DAPI (Southern Biotech, Birmingham, AL) and the following antibodies, mouse anti-elastase (Invitrogen, Carlsbad, CA) was used with the secondary goat anti-mouse Alexa Fluor 568 (Novus Biologicals, Centennial, CO) and rabbit anti-histone H3 (Abcam, Cambridge MA) with goat anti-rabbit Alexa Fluor 488 (Novus Biologicals) to visualize formation of NETs which were imaged with fluorescence microscopy with an Olympus BX53 microscope.
In this assay purified human neutrophils are stimulated with normal human serum activated with ovalbumin-antiovalbumin immune complexes and hydrogen peroxide. Free DNA expressed from the neutrophils is then measured in a PicoGreen assay.
Fig 5 Sarcosine variant inhibition of NET formation. Fluorescence microscopy images of NET formation after neutrophil stimulation with immune complexes (IC) and hydrogen peroxide (H2O2) compared with neutrophil only control. Variant I8 inhibition of NET formation is shown in the third row. Histones are probed with anti-histone antibody (αhistone), neutrophil elastase is probed with anti-neutrophil elastase (αNE) and DNA is stained with DAPI. Representative images are shown. […] Purified human neutrophils were stimulated with 2% normal human sera pre-incubated with ovalbumin-antiovalbumin immune complexes, and 0.05% H2O2. Sarcosine peptides and PIC1 were added to the sera to a final concentration of 2 mM. Data are the means of n = 3 independent experiments + SEM.

C1q = biological target: T1, C1q (Homo sapiens, UniProt P02745+P02746+P02747); assay: C1q binding ELISA-type assay; conditions: C1q as capture substrate
T1 construct: purchased Complement Technology (Tyler, TX)
Procedure: An Immunlon-2 HB ELISA plate was coated with 1 μg/ml C1q or MPO in bicarbonate buffer overnight at 4 °C. The plates were washed with PBST (phosphate buffered saline + 0.1% Tween) and then blocked with 1% gelatin/PBS for 2 hours at room temperature. After washing, the plates were incubated with PA or sarcosine variant peptides starting at 2.5 mg/ml and then serially diluted in 1% gelatin/PBS for 1 hour at room temperature. After washing, the plates were probed with rabbit anti-PA (developed with Cocalico Biologicals, Reamstown, PA) at 1:1000 in 1% gelatin/PBS for 1 hour, room temperature, followed by a goat anti-rabbit HRP (Sigma Aldrich, St Louis, MO) at 1:1,000 in 1% gelatin/PBS for 1 hour at room temperature with a washing step in between. Wells were developed using TMB substrate solution, stopped using 1 N H2SO4, and read at 450 nm in a plate reader.
We then tested peptide variant binding to C1q in an ELISA-type assay in which the C1q is used as the capture substrate. Binding curves for each peptide is shown in Fig 1C, from which half-maximal binding concentrations were calculated (Fig 1D). […] Higher concentrations of DMSO interfere with the detecting reagents resulting in a partial binding curve.

T1 sequence (P02745 23-245): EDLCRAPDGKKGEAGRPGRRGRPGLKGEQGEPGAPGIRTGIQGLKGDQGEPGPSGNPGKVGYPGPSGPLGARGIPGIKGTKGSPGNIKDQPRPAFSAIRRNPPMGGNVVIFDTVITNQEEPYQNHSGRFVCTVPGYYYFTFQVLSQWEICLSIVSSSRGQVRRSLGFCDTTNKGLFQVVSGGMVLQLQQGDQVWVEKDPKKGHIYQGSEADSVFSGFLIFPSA
T1 sequence (P02746 28-253): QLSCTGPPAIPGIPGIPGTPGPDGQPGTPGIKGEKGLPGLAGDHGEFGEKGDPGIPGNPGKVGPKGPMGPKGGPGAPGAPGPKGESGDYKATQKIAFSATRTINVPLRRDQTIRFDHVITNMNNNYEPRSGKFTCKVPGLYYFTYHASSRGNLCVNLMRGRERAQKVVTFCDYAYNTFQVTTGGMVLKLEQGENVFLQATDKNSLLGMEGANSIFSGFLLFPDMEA
T1 sequence (P02747 29-245): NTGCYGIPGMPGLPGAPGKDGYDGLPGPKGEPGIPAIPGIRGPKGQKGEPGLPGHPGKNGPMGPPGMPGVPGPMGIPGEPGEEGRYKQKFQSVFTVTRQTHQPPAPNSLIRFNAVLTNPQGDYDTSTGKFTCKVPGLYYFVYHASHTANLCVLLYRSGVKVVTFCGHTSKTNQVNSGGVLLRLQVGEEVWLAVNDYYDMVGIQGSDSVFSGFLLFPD

| Compound | solubility in water (in words) [1] | ABO hemolysis [2] | inhibition of ABO incompatible hemolysis (in words) [2] | TAC assay, antioxidant activity [3] | PICO green - NETs, free DNA release [4] | antioxidant capacity (in words) [3] | inhibition of NETosis (in words) ([4]; peptides 2 mM, immune complexes + H2O2, PicoGreen free DNA) | binding to C1q (in words) (C1q) |
| --- | --- | --- | --- | --- | --- | --- | --- | --- |
| CC[C@H](C)[C@H](N)C(=O)N(C)CC(=O)N[C@@H](CC(C)C)C(=O)N[C@H](C(=O)N[C@@H](CC(C)C)C(=O)N[C@@H](CCC(=O)O)C(=O)N1CCC[C@H]1C(=O)N[C@H](C(=O)N[C@@H](CS)C(=O)N[C@@H](CS)C(=O)N[C@@H](CCC(N)=O)C(=O)N[C@@H](CCC(=O)O)C(=O)N[C@@H](CCCNC(=N)N)C(=O)N[C@@H](C)C(=O)N[C@@H](C)C(=O)O)[C@@H](C)CC)[C@@H](C)CC [A2] | soluble in water | 18.50 % of Control | to a greater extent than did the PA-dPEG24 | 1071.61 copper reducing equivalents (CRE) | 44 | – | – | – |
| CC[C@H](C)[C@H](N)C(=O)N[C@@H](C)C(=O)N[C@@H](CC(C)C)C(=O)N[C@H](C(=O)N[C@@H](CC(C)C)C(=O)N[C@@H](CCC(=O)O)C(=O)N1CCC[C@H]1C(=O)N[C@H](C(=O)N(C)CC(=O)N[C@@H](CCC(N)=O)C(=O)N[C@@H](CCC(=O)O)C(=O)N[C@@H](CCCNC(=N)N)C(=O)N[C@@H](C)C(=O)N[C@@H](C)C(=O)O)[C@@H](C)CC)[C@@H](C)CC [C9,10] (H-IALILEPI[Sar]QERAA-OH) | soluble in water | – | – | – | – | – | – | – |
| CC[C@H](C)[C@H](N)C(=O)N[C@@H](C)C(=O)N[C@@H](CC(C)C)C(=O)N(C)CC(=O)N[C@@H](CC(C)C)C(=O)N[C@@H](CCC(=O)O)C(=O)N1CCC[C@H]1C(=O)N[C@H](C(=O)N[C@@H](CS)C(=O)N[C@@H](CS)C(=O)N[C@@H](CCC(N)=O)C(=O)N[C@@H](CCC(=O)O)C(=O)N[C@@H](CCCNC(=N)N)C(=O)N[C@@H](C)C(=O)N[C@@H](C)C(=O)O)[C@@H](C)CC [I4] | soluble in water | 18.25 % of Control | to a greater extent than did the PA-dPEG24 | 1518.02 copper reducing equivalents (CRE) | 68 | approaching that of PA-dPEG24 | reduced ability to inhibit NETosis | – |
| CC[C@H](C)[C@H](N)C(=O)N[C@@H](C)C(=O)N(C)CC(=O)N[C@H](C(=O)N[C@@H](CC(C)C)C(=O)N[C@@H](CCC(=O)O)C(=O)N1CCC[C@H]1C(=O)N[C@H](C(=O)N[C@@H](CS)C(=O)N[C@@H](CS)C(=O)N[C@@H](CCC(N)=O)C(=O)N[C@@H](CCC(=O)O)C(=O)N[C@@H](CCCNC(=N)N)C(=O)N[C@@H](C)C(=O)N[C@@H](C)C(=O)O)[C@@H](C)CC)[C@@H](C)CC [L3] | soluble in water | 24.75 % of Control | – | 1336.63 copper reducing equivalents (CRE) | 29 | approaching that of PA-dPEG24 | – | – |
| CC[C@H](C)[C@H](N)C(=O)N[C@@H](C)C(=O)N[C@@H](CC(C)C)C(=O)N[C@H](C(=O)N(C)CC(=O)N[C@@H](CCC(=O)O)C(=O)N1CCC[C@H]1C(=O)N[C@H](C(=O)N[C@@H](CS)C(=O)N[C@@H](CS)C(=O)N[C@@H](CCC(N)=O)C(=O)N[C@@H](CCC(=O)O)C(=O)N[C@@H](CCCNC(=N)N)C(=O)N[C@@H](C)C(=O)N[C@@H](C)C(=O)O)[C@@H](C)CC)[C@@H](C)CC [L5] | soluble in water | 33.50 % of Control | – | 882.23 copper reducing equivalents (CRE) | 32 | – | – | – |
| CC[C@H](C)[C@H](N)C(=O)N[C@@H](C)C(=O)N[C@@H](CC(C)C)C(=O)N[C@H](C(=O)N[C@@H](CC(C)C)C(=O)N[C@@H](CCC(=O)O)C(=O)N1CCC[C@H]1C(=O)N[C@H](C(=O)N[C@@H](CS)C(=O)N[C@@H](CS)C(=O)N[C@@H](CCC(N)=O)C(=O)N[C@@H](CCC(=O)O)C(=O)N[C@@H](CCCNC(=N)N)C(=O)N[C@@H](C)C(=O)N[C@@H](C)C(=O)O)[C@@H](C)CC)[C@@H](C)CC [PA] | poor aqueous solubility | – | – | 1289.18 copper reducing equivalents (CRE) | – | – | – | superior binding to C1q |
